Experimental findings from patent US20180153826A1, “MATERIALS AND METHODS FOR THE TREATMENT OF CYSTIC FIBROSIS” (UNIVERSITY OF FLORIDA RESEARCH FOUNDATION, INC., priority 2015, published 2018) are described below.

For experiment [1], the system named is Cl^−/HCO3^− exchange. Briefly: Cl^−/HCO3^− exchange activity (Cl^−-dependent HCO3^− secretion). The arrangement: species or system rat. To be noted: 10 μM, added to serosal side. As for the experimental part: (§1) Stripped mucosal sheets were mounted into Ussing chambers (window area=0.3-0.5 cm^2, Physiologic Instruments, San Diego, Calif.). The mucosal side of tissue was bathed with an unbuffered HCO3^−-free Cl^− Ringer solution (see Table 2 for detailed composition) circulated by a gas lift with 100% O2 while the serosal side was bathed with buffered Cl^− Ringer solution (pH 7.4) that contained 25 mM HCO3^− and gassed with 5% CO2/95% O2. Each side contained 3-5 ml of solution and the temperature of the solution was adjusted to and maintained at 37° C. by heated water-jacketed reservoirs. […]
(§2) Two types of approaches were used in the measurement of colonic HCO3^− secretion, namely, measurement of lumen pH or pH stat titration of net alkalinization by colonic mucosa. […] The amount of the acid delivered per unit time per surface area was used to quantitate HCO3^− secretion by the mucosa. Measurements were recorded continuously and mean values for consecutive 5 or 10 min periods were averaged. The rate of HCO3^− secretion (JHCO3) is expressed as μEq/hr/cm^2. The short-circuit current (Isc) was measured in microamperes (μA) and converted into μEq/hr/cm^2. Tissue resistance (R, Ω cm^2) was calculated from Ohm's law. […]

Experiment [2] concerns HCO3^− secretion by colonic mucosa. Briefly: Secretagogue (forskolin)-induced HCO3^− secretion, lumen Cl^−-containing Ringer. The arrangement: species or system rat. To be noted: 10 μM serosa, added after forskolin 500 nM. As for the experimental part: as §1, §2
For experiment [3], the system named is colon mucosa of CaSR null mice. Description: HCO3^− secretion in colon mucosa of CaSR null (CaSR^−/−) mice. More on the design: species or system mouse. As for the experimental part:
FIGS. 13A-13F. […] Colonic mucosa from wild type (CaSR^+/+) (A-C) and knockout (CaSR^-/-) mice (D-F) were isolated and treated, and activities of the three HCO3^- transporters assayed as in rats. Data are means±SEM of 4-6 experiments. *p<0.05 vs. control (1st bar). Experiments were performed using non-fasting male Sprague-Dawley rats and C57BL/6 mice. Rats weighting 100-400 g were obtained from Charles River Laboratories. Mice lacking CaSR expression in intestinal epithelial cells (CaSR^-/-) and their CaSR^+/+ littermates were bred and maintained. CaSR^-/- mice were generated as previously described. Briefly, CaSR flox/flox mice were bred with transgenic mice expressing Cre Recombinase under the control of the villin 1 promoter and genotyped prior to all experiments after an approximate 10-12 generations. Mice were used at 5-10 weeks of age. Animals were fed and maintained on regular chow (Harlan) with free access to water before sacrifice. Animals were sacrificed with standard CO2 inhalation followed by cervical dislocation. The colons were isolated, cut open along the mesenteric border into a flat sheet, and flushed with ice-cold Ringer solutions. Mucosa from the distal colon were carefully hand-stripped off of serosal, muscular and submucosal layers as described and a pair of adjacent mucosal segments were incised and mounted into Ussing chambers. […]

The test system of experiment [4] is HCO3^− secretion by colonic mucosa. Description: Acid-induced HCO3^− secretion (lumen pH recovery). Particulars: 10 μM, serosa. More on the design: species or system rat. As for the experimental part:
as §1, §2

`COc1cccc([C@@H](C)NCCCc2ccccc2Cl)c1.Cl` [R568, 2-Chloro-N-[(1R)-1-(3-methoxyphenyl)ethyl]-benzenepropanamine hydrochloride]: in experiment [1], the “Cl^−/HCO3^− exchange activity” value is “stimulation”. Further, the “effect on forskolin-induced HCO3^− secretion” value in experiment [2] is “did not increase but rather decreased”. Further, in experiment [3], the “R568 effects on Cl^−-, SCFA- and cAMP-dependent HCO3^− secretion” value is “abolished”. In addition, the “acid-induced HCO3^− secretion (pH recovery rate)” value in experiment [4] was “transient but significant stimulation”.
